In US6737383B1, “Herbicidal oxadiazolidines” (priority 1999, dated 2004):

Tests used:
[1] = tested on: purple nutsedge; assay: Test B pre/postemergence purple nutsedge; assay type: in vivo, Cyperus rotundus
Method in brief: (§1)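 Test chemicals in a non-phytotoxic solvent mixture with surfactant were sprayed preemergence onto planted seeds and postemergence onto plants 2 to 18 cm tall (1- to 4-leaf stage). After twelve to sixteen days in a greenhouse, injury was visually rated against untreated controls from 0 (no effect) to 10 (complete control).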

[2] = tested on: sugar beet; assay: Test B pre/postemergence sugar beet; assay type: in vivo, Beta vulgaris
Method in brief: as §1

[3] = tested on: bamyardgrass; assay: Test B flood test barnyardgrass; assay type: in vivo, Echinochloa crus-galli
Method in brief: (§2)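 Flood test on plants grown to the 2-leaf stage; treated plants kept in greenhouse twelve to sixteen days, then visually rated against controls on a 0 (no effect) to 10 (complete control) scale.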

[4] = tested on: crabgrass; assay: Test B pre/postemergence crabgrass; assay type: in vivo, Digitaria sanguinalis
Method in brief: as §1

[5] = tested on: soybean; assay: Test B pre/postemergence soybean; assay type: in vivo, Glycine max
Method in brief: as §1

[6] = tested on: wheat; assay: Test B pre/postemergence wheat; assay type: in vivo, Triticum aestivum
Method in brief: as §1

[7] = tested on: duck salad; assay: Test B flood test duck salad; assay type: in vivo, Heteranthera limosa
Method in brief: as §2

[8] = tested on: giant foxtail; assay: Test B pre/postemergence giant foxtail; assay type: in vivo, Setaria faberii
Method in brief: as §1

[9] = tested on: pigweed; assay: Test B pre/postemergence pigweed; assay type: in vivo, Amaranthus retroflexus
Method in brief: as §1

[10] = tested on: corn; assay: Test B pre/postemergence corn; assay type: in vivo, Zea mays
Method in brief: as §1

[11] = tested on: cocklebur; assay: Test B pre/postemergence cocklebur; assay type: in vivo, Xanthium strumarium
Method in brief: as §1

[12] = tested on: velvetleaf; assay: Test B pre/postemergence velvetleaf; assay type: in vivo, Abutilon theophrasti
Method in brief: as §1

[13] = tested on: wild oat; assay: Test B pre/postemergence wild oat; assay type: in vivo, Avena fatua
Method in brief: as §1

[14] = tested on: rice; assay: Test B flood test rice; assay type: in vivo, Oryza sativa
Method in brief: as §2

[15] = tested on: morningglory; assay: Test B pre/postemergence morningglory; assay type: in vivo, Ipomoea hederacea
Method in brief: as §1

[16] = tested on: rape; assay: Test B pre/postemergence rape; assay type: in vivo, Brassica napus
Method in brief: as §1

[17] = Postemergence, Rate 250 g/ha, scale 0 to 10, 0 no effect, 10 complete control
[18] = Postemergence, Rate 1000 g/ha, scale 0 to 10 (0 no effect, 10 complete control)
[19] = Preemergence, Rate 125 g/ha, scale 0 to 10 (0 no effect, 10 complete control)
[20] = Preemergence, Rate 250 g/ha, scale of 0 to 10 where 0 is no effect and 10 is complete control
[21] = Preemergence, Rate 500 g/ha, scale 0 (no effect) to 10 (complete control)
[22] = Rate 125 g/ha, Postemergence, scale 0 to 10, 0 no effect, 10 complete control
[23] = Rate 500 g/ha, Postemergence, 0 to 10 scale (0 no effect, 10 complete control)
[24] = Rate 1000 g/ha, Preemergence, scale 0 to 10 (0 no effect, 10 complete control)
[25] = Rate 125 g/ha, Postemergence section (flood test species), scale 0 to 10, 0 no effect, 10 complete control
[26] = Rate 500 g/ha, Postemergence section of Table B, 0 to 10 scale (0 no effect, 10 complete control)
[27] = flood test, listed under Postemergence, Rate 250 g/ha, scale 0 to 10, 0 no effect, 10 complete control

Compound: CCN(CC)C(=O)n1oc(=O)n(-c2ccc(OC(F)(F)F)cc2)c1=O [Compound 12]
- Nutsedge plant response rating [1, 17]: 0
- Nutsedge plant response rating [1, 18]: 0
- Plant response rating, Nutsedge [1, 19]: 0
- Plant response rating, Nutsedge [1, 20]: 0
- Nutsedge plant response rating [1, 21]: 0
- Nutsedge plant response rating [1, 22]: 0
- Nutsedge plant response rating [1, 23]: 0
- Plant response rating, Nutsedge [1, 24]: 0
- Sugarbeets plant response rating [2, 17]: 0
- Sugarbeets plant response rating [2, 18]: 0
- Plant response rating, Sugarbeets [2, 19]: 0
- Plant response rating, Sugarbeets [2, 20]: 0
- Sugarbeets plant response rating [2, 21]: 0
- Sugarbeets plant response rating [2, 22]: 0
- Plant response rating, Sugarbeets [2, 24]: 0
- Barnyardgrass plant response rating [3, 18]: 0
- Barnyardgrass plant response rating [3, 25]: 0
- Barnyardgrass plant response rating [3, 26]: 0
- Barnyardgrass plant response rating [3, 27]: 0
- Crabgrass plant response rating [4, 17]: 0
- Crabgrass plant response rating [4, 18]: 0
- Plant response rating, Crabgrass [4, 19]: 0
- Plant response rating, Crabgrass [4, 20]: 0
- Crabgrass plant response rating [4, 21]: 0
- Crabgrass plant response rating [4, 22]: 0
- Crabgrass plant response rating [4, 23]: 0
- Plant response rating, Crabgrass [4, 24]: 6
- Soybean plant response rating [5, 17]: 0
- Soybean plant response rating [5, 18]: 1
- Plant response rating, Soybean [5, 19]: 0
- Plant response rating, Soybean [5, 20]: 0
- Soybean plant response rating [5, 21]: 0
- Soybean plant response rating [5, 22]: 0
- Plant response rating, Soybean [5, 24]: 0
- Wheat plant response rating [6, 17]: 0
- Wheat plant response rating [6, 18]: 0
- Plant response rating, Wheat [6, 19]: 0
- Plant response rating, Wheat [6, 20]: 0
- Wheat plant response rating [6, 21]: 0
- Wheat plant response rating [6, 22]: 0
- Plant response rating, Wheat [6, 24]: 0
- Ducksalad plant response rating [7, 18]: 0
- Ducksalad plant response rating [7, 25]: 0
- Ducksalad plant response rating [7, 26]: 0
- Ducksalad plant response rating [7, 27]: 0
- Giant foxtail plant response rating [8, 17]: 0
- Giant foxtail plant response rating [8, 18]: 0
- Plant response rating, Giant foxtail [8, 19]: 0
- Plant response rating, Giant foxtail [8, 20]: 0
- Giant foxtail plant response rating [8, 21]: 2
- Giant foxtail plant response rating [8, 22]: 0
- Giant foxtail plant response rating [8, 23]: 0
- Plant response rating, Giant foxtail [8, 24]: 8
- Redroot pigweed plant response rating [9, 17]: 0
- Redroot pigweed plant response rating [9, 18]: 0
- Plant response rating, Redroot pigweed [9, 19]: 0
- Plant response rating, Redroot pigweed [9, 20]: 0
- Redroot pigweed plant response rating [9, 21]: 0
- Redroot pigweed plant response rating [9, 22]: 0
- Redroot pigweed plant response rating [9, 23]: 0
- Plant response rating, Redroot pigweed [9, 24]: 0
- Corn plant response rating [10, 17]: 0
- Corn plant response rating [10, 18]: 0
- Plant response rating, Corn [10, 19]: 0
- Plant response rating, Corn [10, 20]: 0
- Corn plant response rating [10, 21]: 0
- Corn plant response rating [10, 22]: 0
- Corn plant response rating [10, 23]: 0
- Plant response rating, Corn [10, 24]: 0
- Cocklebur plant response rating [11, 17]: 0
- Cocklebur plant response rating [11, 18]: 0
- Plant response rating, Cocklebur [11, 19]: 0
- Plant response rating, Cocklebur [11, 20]: 0
- Cocklebur plant response rating [11, 21]: 0
- Cocklebur plant response rating [11, 22]: 0
- Cocklebur plant response rating [11, 23]: 0
- Plant response rating, Cocklebur [11, 24]: 0
- Velvetleaf plant response rating [12, 17]: 0
- Velvetleaf plant response rating [12, 18]: 0
- Plant response rating, Velvetleaf [12, 19]: 0
- Plant response rating, Velvetleaf [12, 20]: 0
- Velvetleaf plant response rating [12, 21]: 0
- Velvetleaf plant response rating [12, 22]: 0
- Plant response rating, Velvetleaf [12, 24]: 0
- Wild oats plant response rating [13, 17]: 0
- Wild oats plant response rating [13, 18]: 0
- Plant response rating, Wild oats [13, 19]: 0
- Plant response rating, Wild oats [13, 20]: 0
- Wild oats plant response rating [13, 21]: 0
- Wild oats plant response rating [13, 22]: 0
- Plant response rating, Wild oats [13, 24]: 0
- Rice plant response rating [14, 18]: 0
- Rice plant response rating [14, 25]: 0
- Rice plant response rating [14, 26]: 0
- Rice plant response rating [14, 27]: 0
- Morningglory plant response rating [15, 17]: 0
- Morningglory plant response rating [15, 18]: 0
- Plant response rating, Morningglory [15, 19]: 0
- Plant response rating, Morningglory [15, 20]: 0
- Morningglory plant response rating [15, 21]: 0
- Morningglory plant response rating [15, 22]: 0
- Morningglory plant response rating [15, 23]: 0
- Plant response rating, Morningglory [15, 24]: 0
- Rape plant response rating [16, 17]: 0
- Rape plant response rating [16, 18]: 0
- Plant response rating, Rape [16, 19]: 0
- Plant response rating, Rape [16, 20]: 0
- Rape plant response rating [16, 21]: 0
- Rape plant response rating [16, 22]: 0
- Rape plant response rating [16, 23]: 0
- Plant response rating, Rape [16, 24]: 0
